The source of these data is patent publication US12103919B2, “3-(5-oxy)-1-oxoisoindolin-2-yl)piperidine-2,6-dione derivatives and uses thereof” (NOVARTIS AG, priority 2021, dated 2024).

Like-named read-outs stand apart in the source and are kept apart here.

The target in the test is T1, WIZ (Homo sapiens, UniProt O95785+Q96SW2).
T1 construct: expressed in transfected cells
Description: Quantification of WIZ protein levels in HiBit tag fusion protein assay (293T cells). The arrangement: Dmax: dose or concentration left out as unconfirmed. Format: cell-based. The settings on record: for Dmax / remaining activity at 25 µM / Dmax at 25 µM: HEK-293T; for Dmax / Dmax at 25 µM: read-out: % degradation of WIZ (100 − Amax); for remaining activity at 25 µM: read-out: WIZ Amax; for DC50: WIZ HiBit assay in 293T cells, about 18 hours, 10-point 5-fold dilution, top 25 μM, read-out: WIZ AC50; for Dmax at 25 µM / % degradation of WIZ (100 − Amax): 100 − Amax, at 25 uM. The protocol:
The HiBit system from Promega was used to develop high-throughput and quantitative assays to measure changes in WIZ protein levels in response to compounds. The HiBit tag was derived from a split Nanoluciferase and has the following protein sequence: […] (SEQ ID NO: 1). The complementary fragment of Nanoluciferase (known as LgBit, from Promega), was added to the HiBit tag to form an active Nanoluciferase enzyme whose activity can be precisely measured. In this way, the levels of a fusion protein with the HiBit tag can be quantified in cell lysates.
Lentiviral vectors, based on the Invitrogen™ pLenti6.2/V5 DEST backbone were constructed that places the HiBit tag upstream of WIZ and expressed the fusion protein from an HSVTK promotor.
To ensure moderate and consistent expression of the HiBit-WIZ fusion protein across all cells in the population, stable cell lines were constructed from cells harboring a single copy of the construct. Lentivirus packaged with the constructs were made using the ViraPowerTMkit from Invitrogen™. 293T cells from ATCC (Catalog number: CRL-3216), were infected with the virus at low multiplicity of infection and selected by 5 μg/mL blasticidin in culture media for 2 weeks.
The levels of HiBit-WIZ tagged fusion proteins in compound-treated cell lines were measured as follows:
On day 1, cells were diluted to 1.0×10^6 cells/ml in normal growth medium. 20 μL of cell suspension were plated in each well of a solid white 384-well plate. Plates were incubated overnight in a 37° C. and 5% CO2 humidified tissue culture incubator.
On day 2, serial dilutions of compounds were made in 384-well plates. Compound plates were set up with DMSO in columns 1, 2, 23, 24, and 10-point compound dilution series in column 3-12 and column 13-22. 10 mM stock solution of compound were placed into column 3 or 13 and a 1:5 serial dilution was carried out until there was a 10-point dilution series per compound. 50 nL of diluted compounds were transferred into the plated cells by Echo® (Labcyte) acoustic transfer. The highest concentration of compound was 25 μM. Plates were incubated overnight (about 18 hours) in a 37° C. and 5% CO2 humidified tissue culture incubator.
On day 3, plates were removed from the incubator and allowed to equilibrate at room temperature for 60 minutes. HiBit substrate (Nano-Glo® HiBit Lytic Detection System, Promega Catalogue number: N3050) was added as described by the manufacturers protocols. Plates were incubated at room temperature for 30 minutes and luminescence was read using an EnVision® reader (PerkinElmer®). Data was analyzed and visualized using the Spotfire® software package.
WIZ Amax reflects the DMSO-normalized, curve-fitted percentage of WIZ-HiBit remaining at 25 uM. It was calculated by normalizing DMSO controls to 100%, parametric curve fitting of the dose response data (10-point, 5-fold), followed by calculation of response at 25 uM using the fitted equation.
(With HiBiT, luminescence reflects the tagged protein that the partner subunit can reach.)

The mark [1] stands for this setting: DMSO-normalized, curve-fitted percentage of WIZ-HiBit remaining at 25 uM.

T1 sequence (O95785 whole entry): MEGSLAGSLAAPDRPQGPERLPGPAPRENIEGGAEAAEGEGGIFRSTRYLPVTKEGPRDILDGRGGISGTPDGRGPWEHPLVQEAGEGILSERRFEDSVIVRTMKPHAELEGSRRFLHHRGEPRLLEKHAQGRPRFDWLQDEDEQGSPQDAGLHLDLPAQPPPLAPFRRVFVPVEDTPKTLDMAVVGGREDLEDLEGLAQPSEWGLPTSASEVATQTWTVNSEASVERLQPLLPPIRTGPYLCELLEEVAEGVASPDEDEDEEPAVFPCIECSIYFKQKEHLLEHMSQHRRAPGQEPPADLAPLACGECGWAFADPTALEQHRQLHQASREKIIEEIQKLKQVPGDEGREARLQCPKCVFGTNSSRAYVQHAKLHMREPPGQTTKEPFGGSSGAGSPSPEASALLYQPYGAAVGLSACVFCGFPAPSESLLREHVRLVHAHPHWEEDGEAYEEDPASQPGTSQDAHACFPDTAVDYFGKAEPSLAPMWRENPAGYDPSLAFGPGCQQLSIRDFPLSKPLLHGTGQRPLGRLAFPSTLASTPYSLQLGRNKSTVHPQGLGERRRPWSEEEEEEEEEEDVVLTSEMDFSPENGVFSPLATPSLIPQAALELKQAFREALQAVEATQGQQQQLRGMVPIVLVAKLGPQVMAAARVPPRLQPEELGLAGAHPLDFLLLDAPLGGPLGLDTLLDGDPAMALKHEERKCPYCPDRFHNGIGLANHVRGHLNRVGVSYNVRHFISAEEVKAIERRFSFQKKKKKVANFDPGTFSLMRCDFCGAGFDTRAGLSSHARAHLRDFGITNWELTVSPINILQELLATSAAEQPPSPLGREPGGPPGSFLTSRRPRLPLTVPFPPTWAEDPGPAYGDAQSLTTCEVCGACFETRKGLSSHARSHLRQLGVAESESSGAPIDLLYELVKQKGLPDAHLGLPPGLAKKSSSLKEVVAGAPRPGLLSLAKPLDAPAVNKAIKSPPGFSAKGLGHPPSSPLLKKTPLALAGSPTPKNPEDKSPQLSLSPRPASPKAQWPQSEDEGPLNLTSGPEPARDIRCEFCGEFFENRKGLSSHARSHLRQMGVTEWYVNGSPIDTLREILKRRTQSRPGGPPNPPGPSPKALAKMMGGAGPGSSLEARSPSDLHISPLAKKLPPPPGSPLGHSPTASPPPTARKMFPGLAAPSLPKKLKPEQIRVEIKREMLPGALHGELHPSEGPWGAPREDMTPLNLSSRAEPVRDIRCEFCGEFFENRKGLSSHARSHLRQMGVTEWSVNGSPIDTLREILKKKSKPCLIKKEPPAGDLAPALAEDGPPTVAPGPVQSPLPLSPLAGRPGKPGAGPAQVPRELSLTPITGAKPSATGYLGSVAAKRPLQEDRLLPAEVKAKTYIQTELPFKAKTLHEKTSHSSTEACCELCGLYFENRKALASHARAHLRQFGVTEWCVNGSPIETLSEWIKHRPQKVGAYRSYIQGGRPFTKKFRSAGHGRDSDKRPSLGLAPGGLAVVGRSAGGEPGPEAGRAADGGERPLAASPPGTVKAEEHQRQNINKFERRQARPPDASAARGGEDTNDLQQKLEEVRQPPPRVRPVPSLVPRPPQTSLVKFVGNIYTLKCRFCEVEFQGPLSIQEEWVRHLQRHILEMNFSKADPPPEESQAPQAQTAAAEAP
T1 sequence (Q96SW2 whole entry): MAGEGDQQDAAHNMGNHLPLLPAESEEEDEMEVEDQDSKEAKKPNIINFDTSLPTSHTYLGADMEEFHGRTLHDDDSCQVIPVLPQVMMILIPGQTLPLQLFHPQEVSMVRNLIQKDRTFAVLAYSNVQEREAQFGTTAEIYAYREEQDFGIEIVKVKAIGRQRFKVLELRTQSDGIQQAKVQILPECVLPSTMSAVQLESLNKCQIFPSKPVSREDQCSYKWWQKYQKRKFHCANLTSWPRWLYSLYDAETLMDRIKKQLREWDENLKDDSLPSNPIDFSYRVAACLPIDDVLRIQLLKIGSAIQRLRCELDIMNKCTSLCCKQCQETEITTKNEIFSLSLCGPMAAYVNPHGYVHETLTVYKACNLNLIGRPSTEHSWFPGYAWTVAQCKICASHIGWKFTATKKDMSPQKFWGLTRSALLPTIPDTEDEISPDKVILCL
T1 sequence (Q16531 whole entry partner): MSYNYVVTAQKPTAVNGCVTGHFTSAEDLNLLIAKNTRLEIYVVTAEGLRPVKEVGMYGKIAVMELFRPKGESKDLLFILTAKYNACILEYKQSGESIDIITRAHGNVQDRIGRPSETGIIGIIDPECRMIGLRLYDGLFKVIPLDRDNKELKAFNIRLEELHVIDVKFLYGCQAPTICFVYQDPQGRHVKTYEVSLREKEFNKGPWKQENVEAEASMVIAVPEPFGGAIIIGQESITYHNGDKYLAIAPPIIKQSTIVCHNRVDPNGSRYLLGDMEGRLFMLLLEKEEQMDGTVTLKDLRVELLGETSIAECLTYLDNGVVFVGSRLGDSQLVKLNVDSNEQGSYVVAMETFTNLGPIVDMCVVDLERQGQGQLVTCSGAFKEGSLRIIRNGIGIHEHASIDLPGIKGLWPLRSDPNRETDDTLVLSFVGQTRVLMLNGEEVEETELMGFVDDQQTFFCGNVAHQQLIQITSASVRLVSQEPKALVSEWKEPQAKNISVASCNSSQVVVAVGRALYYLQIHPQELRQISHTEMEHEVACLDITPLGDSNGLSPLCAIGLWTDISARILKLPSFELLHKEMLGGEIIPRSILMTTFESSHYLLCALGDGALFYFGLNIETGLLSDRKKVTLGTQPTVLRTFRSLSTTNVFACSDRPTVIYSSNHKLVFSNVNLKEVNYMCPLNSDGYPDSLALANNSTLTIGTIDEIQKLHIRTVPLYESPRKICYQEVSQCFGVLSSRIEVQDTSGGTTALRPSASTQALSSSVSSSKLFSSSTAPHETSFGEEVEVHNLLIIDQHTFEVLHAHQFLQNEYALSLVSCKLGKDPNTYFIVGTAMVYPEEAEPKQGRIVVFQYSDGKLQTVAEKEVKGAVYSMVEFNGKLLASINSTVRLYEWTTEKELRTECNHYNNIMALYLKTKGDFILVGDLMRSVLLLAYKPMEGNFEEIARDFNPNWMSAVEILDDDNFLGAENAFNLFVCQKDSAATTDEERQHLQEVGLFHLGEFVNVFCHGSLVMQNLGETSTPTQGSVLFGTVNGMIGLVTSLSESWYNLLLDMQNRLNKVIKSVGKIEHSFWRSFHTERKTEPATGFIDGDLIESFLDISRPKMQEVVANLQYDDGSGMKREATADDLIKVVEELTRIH

In the case of `CCN1CC2CC(Oc3ccc4c(c3)CN(C3CCC(=O)NC3=O)C4=O)C1C2` (racemic) [Example 62, rac-3-(5-((2-ethyl-2-azabicyclo[2.2.1]heptan-6-yl)oxy)-1-oxoisoindolin-2-yl)piperidine-2,6-dione], the Dmax came out at 27.1%, the remaining activity at 25 µM came to 72.9% and the DC50 is 83 nM.

In the case of `CCN1C[C@@H]2C[C@@H]2[C@H](Oc2ccc3c(c2)CN(C2CCC(=O)NC2=O)C3=O)C1` (relative stereo) [Example 53, 3-(5-(((1R*,5S*,6S*)-3-ethyl-3-azabicyclo[4.1.0]heptan-5-yl)oxy)-1-oxoisoindolin-2-yl)piperidine-2,6-dione], the Dmax at 25 µM is 21.8% and the DC50 is 71 nM. Under setting [1], the remaining activity at 25 µM came out at 78.2%.

For the compound `CCN1CC[C@H](F)[C@@H](Oc2ccc3c(c2)CN(C2CCC(=O)NC2=O)C3=O)C1` (relative stereo) [Example 55, 3-(5-(((3S*,4S*)-1-ethyl-4-fluoropiperidin-3-yl)oxy)-1-oxoisoindolin-2-yl)piperidine-2,6-dione], the Dmax is 44.9%, the remaining activity at 25 µM was found to be 55.1% and the DC50 stood at 26 nM.

In the case of `CCN1CC[C@@H](F)[C@H](Oc2ccc3c(c2)CN(C2CCC(=O)NC2=O)C3=O)C1` (relative stereo) [Example 56, 3-(5-(((3R*,4R*)-1-ethyl-4-fluoropiperidin-3-yl)oxy)-1-oxoisoindolin-2-yl)piperidine-2,6-dione], the Dmax came out at 16.2%, the remaining activity at 25 µM was found to be 83.8% and the DC50 was 950 nM.

As for `CCN1CC[C@@H](F)[C@@H](Oc2ccc3c(c2)CN(C2CCC(=O)NC2=O)C3=O)C1` (relative stereo) [Example 57, 3-(5-(((3S*,4R*)-1-ethyl-4-fluoropiperidin-3-yl)oxy)-1-oxoisoindolin-2-yl)piperidine-2,6-dione], the Dmax amounted to 16.9%, the remaining activity at 25 µM was determined as 83.1% and the DC50 was 170 nM.

On to `CCN1CC[C@H](F)[C@H](Oc2ccc3c(c2)CN(C2CCC(=O)NC2=O)C3=O)C1` (relative stereo) [Example 58, 3-(5-(((3R*,4S*)-1-ethyl-4-fluoropiperidin-3-yl)oxy)-1-oxoisoindolin-2-yl)piperidine-2,6-dione], for which the Dmax is 60.7%, the remaining activity at 25 µM came to 39.3% and the DC50 came out at 4.9 nM.

Take `CCN1CC(Oc2ccc3c(c2)CN(C2CCC(=O)NC2=O)C3=O)CC2(CC2)C1` (single isomer, unassigned) [Example 18, 3-(5-((5-ethyl-5-azaspiro[2.5]octan-7-yl)oxy)-1-oxoisoindolin-2-yl)piperidine-2,6-dione]: the DC50 worked out at 20 nM and the “% degradation of WIZ (100 − Amax)” value was 38.62%. Further, the “WIZ Amax” value under setting [1] is reported as 61.38%.

Turning to `CCN1CC(Oc2ccc3c(c2)CN(C2CCC(=O)NC2=O)C3=O)CC2(CC2)C1` (single isomer, unassigned) [Example 19, 3-(5-((5-ethyl-5-azaspiro[2.5]octan-7-yl)oxy)-1-oxoisoindolin-2-yl)piperidine-2,6-dione], the DC50 came to 12 nM and the “% degradation of WIZ (100 − Amax)” value was 62.87%. Moreover, the “WIZ Amax” value under setting [1] came out at 37.13%.

In the case of `CCN1C[C@H]2C[C@H]2[C@H](Oc2ccc3c(c2)CN(C2CCC(=O)NC2=O)C3=O)C1` (single isomer, unassigned) [Example 20, 3-(5-(((1S*,5S*,6R*)-3-ethyl-3-azabicyclo[4.1.0]heptan-5-yl)oxy)-1-oxoisoindolin-2-yl)piperidine-2,6-dione], the Dmax at 25 µM stood at 24.1% and the DC50 amounted to 3750 nM. Besides, the remaining activity at 25 µM under setting [1] was 75.9%.

For the compound `CCN1C[C@@H]2C[C@@H]2[C@@H](Oc2ccc3c(c2)CN(C2CCC(=O)NC2=O)C3=O)C1` (single isomer, unassigned) [Example 21, 3-(5-(((1R*,5R*,6S*)-3-ethyl-3-azabicyclo[4.1.0]heptan-5-yl)oxy)-1-oxoisoindolin-2-yl)piperidine-2,6-dione], the Dmax at 25 µM turned out to be 74.3% and the DC50 came out at 3.5 nM. For the same compound, under setting [1], the remaining activity at 25 µM came out at 25.7%.

On to `CCN1C[C@H]2C[C@H]2[C@@H](Oc2ccc3c(c2)CN(C2CCC(=O)NC2=O)C3=O)C1` (single isomer, unassigned) [Example 22, 3-(5-(((1S*,5R*,6R*)-3-ethyl-3-azabicyclo[4.1.0]heptan-5-yl)oxy)-1-oxoisoindolin-2-yl)piperidine-2,6-dione], for which the Dmax at 25 µM worked out at 24.4% and the DC50 worked out at 83 nM. The remaining activity at 25 µM under setting [1] was 75.7%.

In the case of `CCN1CCC(C)(C)C(Oc2ccc3c(c2)CN(C2CCC(=O)NC2=O)C3=O)C1` (single isomer, unassigned) [Example 48, 3-(5-((1-ethyl-4,4-dimethylpiperidin-3-yl)oxy)-1-oxoisoindolin-2-yl)piperidine-2,6-dione], the remaining activity at 25 µM turned out to be 102% and the DC50 is > 25000 nM.

`CCN1CCC(C)(C)C(Oc2ccc3c(c2)CN(C2CCC(=O)NC2=O)C3=O)C1` (single isomer, unassigned) [Example 49, 3-(5-((1-ethyl-4,4-dimethylpiperidin-3-yl)oxy)-1-oxoisoindolin-2-yl)piperidine-2,6-dione]: the Dmax at 25 µM was found to be 8.63% and the DC50 was 83 nM. For the same compound, the remaining activity at 25 µM under setting [1] was 91.4%.

With `CC[C@H](C)N1CCC(C)(C)C(Oc2ccc3c(c2)CN(C2CCC(=O)NC2=O)C3=O)C1` (single isomer, unassigned) [Example 50], the DC50 is > 25000 nM and the “% degradation of WIZ (100 − Amax)” value is 2.38%. Also, the remaining activity at 25 µM under setting [1] was determined as 97.6%.

With `CC[C@H](C)N1CCC(C)(C)C(Oc2ccc3c(c2)CN(C2CCC(=O)NC2=O)C3=O)C1` (single isomer, unassigned) [Example 51], the DC50 was determined as 200 nM and the “% degradation of WIZ (100 − Amax)” value turned out to be 12.81%. Further, the “WIZ Amax” value under setting [1] turned out to be 87.19%.

On to `CCN1C[C@H](OC)C[C@@H](Oc2ccc3c(c2)CN(C2CCC(=O)NC2=O)C3=O)C1` (single isomer, unassigned) [Example 65-1], for which the Dmax at 25 µM was 81.9% and the DC50 is 1.4 nM. Also, the remaining activity at 25 µM under setting [1] worked out at 18.1%.

On to `CCN1C[C@H](OC)C[C@@H](Oc2ccc3c(c2)CN(C2CCC(=O)NC2=O)C3=O)C1` (single isomer, unassigned) [Example 65-2], for which the DC50 was 1.2 nM and the “% degradation of WIZ (100 − Amax)” value came to 80.33%. In addition, the “WIZ Amax” value under setting [1] is given as 19.67%.

`CCN1C[C@H](C)C[C@@H](Oc2ccc3c(c2)CN(C2CCC(=O)NC2=O)C3=O)C1` (single isomer, unassigned) [Example 76-1]: the Dmax at 25 µM is 86.2% and the DC50 turned out to be 1.6 nM. For the same compound, under setting [1], the remaining activity at 25 µM is 13.8%.

As to `CCN1C[C@H](C)C[C@@H](Oc2ccc3c(c2)CN(C2CCC(=O)NC2=O)C3=O)C1` (single isomer, unassigned) [Example 76-2], the DC50 is 0.6 nM and the “% degradation of WIZ (100 − Amax)” value is given as 87.18%. For the same compound, the “WIZ Amax” value under setting [1] is 12.82%.

On to `CCN1CCC[C@H](Oc2ccc3c(c2)CN(C2CCC(=O)NC2=O)C3=O)C1` (stereo partly drawn) [Example 2, 3-(5-(((S)-1-ethylpiperidin-3-yl)oxy)-1-oxoisoindolin-2-yl)piperidine-2,6-dione], for which the Dmax came to 11.1%, the remaining activity at 25 µM stood at 88.9% and the DC50 turned out to be 360 nM.

`CC(C)CN1CCC[C@@H](Oc2ccc3c(c2)CN(C2CCC(=O)NC2=O)C3=O)C1` (stereo partly drawn) [Example 3, 3-(5-(((R)-1-isobutylpiperidin-3-yl)oxy)-1-oxoisoindolin-2-yl)piperidine-2,6-dione]: the Dmax at 25 µM amounted to 73.2% and the DC50 stood at 2 nM. Under setting [1], the remaining activity at 25 µM came out at 26.8%.
